Laboratory results reported in paper PMC5234776, “Study of the Antimicrobial Activity of Tilapia Piscidin 3 (TP3) and TP4 and Their Effects on Immune Functions in Hybrid Tilapia (Oreochromis spp.)” (PLoS ONE, 2017).
Converted amounts (≈) assume the structure as drawn. Read-outs that look alike come from different tables or passages of the source. Peptide text beside a SMILES is read from it.

Assays:
[1] = test system: tilapia; experiment: Toxicity of peptide alone, tilapia survival; assay type: in vivo, tilapia (Oreochromis spp.); conditions: abdominal cavity, no infection, seven days (S2 Fig)
Procedure: The antimicrobial activities of TP3 and TP4 peptides were analyzed in tilapia infected with lethal amounts of bacteria. Different amounts of V. vulnificus were injected into the abdominal cavities of the fish, and survival rates were recorded as cumulative percentages (S1 Fig). To determine whether TP3 and TP4 had any toxic effects on the tilapia, we injected different doses of TP3 and TP4 (0.1, 1, 10, 20, 30, 40, or 50 μg/fish) into the abdominal cavity and recorded the cumulative survival percentage of the fish (S2 Fig). We also co-treated tilapia with different doses (0.1, 1, 10, 20 μg/fish) of TP3 or TP4 combined with 2x10^4 CFU of V. vulnificus to evaluate tilapia survival following treatment. […] After 14, 21, or 28 days following the first co-treatment with TP3, the tilapia that survived in the 20 μg/fish TP3 experimental group were injected with a second dose of 2x10^4 CFU of V. vulnificus, and the survival rates were measured for another seven days. […] In the co-treatment experiments, at 14, 21, or 28 days after the first co-treatment with TP4, the surviving tilapia in the 20 μg/fish TP4 experimental group received a second injection of 2x10^4 CFU of V. vulnificus, and the survival rates were measured for another seven days.
Supplementary file pone.0169678.s002.pdf: S2 Fig Determination of tilapia survival rates seven days after injection with different concentrations of TP3 or TP4. (a) The survival rates of tilapia injected with TP3 at a dose of 0.1 μg/fish, 1 μg/fish, or 10 μg/fish. (b) The percentage of tilapia surviving after injection with TP4 at 0.1 μg/fish, 1 μg/fish, or 10 μg/fish. (c) The percentage of tilapia surviving after injection with TP3 at 20 μg/fish, 30 μg/fish, 40 μg/fish, or 50 μg/fish. (d) The percentage of tilapia surviving after injection with TP4 at 20 μg/fish, 30 μg/fish, 40 μg/fish, or 50 μg/fish. The control group (control) was injected with PBS alone. (PDF) Click here for additional data file.

[2] = in vivo; parameters: species or system tilapia (Oreochromis hybrids, Tilapia spp.); conditions: male, iv, 0.2 mg/kg
Procedure: The peptide half-life of TP3 and TP4 were investigated in male tilapia (Oreochromis hybrids, Tilapia spp., with a mean body length of 32.33±1.5 cm and a mean body weight of 1117±78.2 g) after intravenous administration of a single dose of 0.2 mg/kg of peptide. The TP3 and TP4 concentrations in serum samples were determined at 10, 30, 60, 120, 180, 240, 300, and 360 minutes for TP3 and at 10, 60, 120, 180, 240, 300, and 360 minutes after dosing for TP4. At each sample collection time point, we anesthetized three fish and collected their blood. The blood was centrifuged to obtain fish serum, which was assessed by liquid chromatography-mass spectrometry/mass spectrometry (LC-MS/MS) at Mission Biotech (Taipei, Taiwan).

[3] = test system: V. vulnificus; experiment: MIC, broth microdilution (NCCLS); assay type: cell-based, Vibrio vulnificus; conditions: 28°C
Procedure: (§1) We determined the MICs of TP3, TP4, kanamycin, and ampicillin against V. vulnificus using a broth microdilution method in accordance with NCCLS guidelines. To measure the killing efficiencies of TP3 and TP4 against V. vulnificus, we prepared TP3 or TP4 solutions at MIC concentrations of 0.5×, 1×, and 2× and these solutions with equal volumes of V. vulnificus (1×10^6 CFU/ml) to each well of a 96-well plate. The plates were incubated at 28°C for 0, 60, 120, 180, 360, 540, 720, or 1440 minutes, and after the incubation period, 50 μL of each bacterial solution were plated on a TCBS plate to obtain viable cell counts. Broth grown in the absence of peptides was used as a negative control. The results were determined using triplicate independent experiments.

[4] = test system: V. vulnificus; experiment: microbe, parasite or virus in culture; assay type: cell-based, Vibrio vulnificus; conditions: V. vulnificus
Procedure: as §1
First, we determined the minimum MICs and minimum bactericidal concentrations (MBCs) of TP3 or TP4 against V. vulnificus.

[5] = test system: V. vulnificus; experiment: microbe, parasite or virus in culture; assay type: cell-based, Vibrio vulnificus
Procedure: (§2) To understand the effects of pH on TP3 or TP4, the reagents were dissolved in ddH2O, 1 M HCl or 1 M NaOH to obtain solutions with different pH values. For the temperature-dependent functional study, the TP3 or TP4 was added to a solution in a water bath (Basic life, model BL3002, Taiwan) and incubated for 60 minutes at different temperatures (40, 60, 80, or 100°C). To evaluate the effects of TP3 and TP4 on pepsin and trypsin function, each peptide was incubated for 10 or 30 minutes with different concentrations of pepsin or trypsin (0.1, 1, or 10 μg/ml), and we determined the MIC values after incubating these solutions with cells at 28°C for 720 minutes, according to a previously described MIC experimental protocol.

[6] = test system: V. vulnificus; experiment: microbe, parasite or virus in culture; assay type: cell-based, Vibrio vulnificus; remark: listed apart in the source
Procedure: as §2, with “[…],” for “and we determined the MIC values after incubating these solutions with cells at 28°C for 720 minutes,”

[7] = test system: V. vulnificus; experiment: Synergy of TP3 or TP4 with ampicillin or kanamycin; assay type: cell-based, Vibrio vulnificus; conditions: V. vulnificus 5×10^3 CFU/ml, 28°C, 720 minutes, 600-nm absorbance
Procedure: We used the co-treatment method to test combinations of TP3 or TP4 with ampicillin or kanamycin to identify synergistic effects. […] The plates were incubated at 28°C for 720 minutes, and after the incubation period, the concentrations of the bacterial solutions were detected using a spectrometer (600-nm absorbance).

[8] = test system: V. vulnificus; experiment: Membrane perturbation, NPN uptake; assay type: cell-based, Vibrio vulnificus; conditions: 1×10^6 CFU/ml, 30 minutes, 40 μmol/L NPN; kanamycin: slight increase only
Procedure: We used previously reported methods for the membrane perturbation assay. Briefly, a single colony of V. vulnificus was cultured in TSB medium for 480 minutes at 28°C, and the adjusted culture (1×10^6 CFU/ml) was aliquoted into different tubes with or without TP4 or TP3. After incubating the cells for 30 minutes, we added 40 μmol/L 1-N-phenylnaphthylamine (NPN) and continued to incubate the cells. Tubes containing PBS with NPN and bacterial cells with NPN served as controls. The NPN fluorescence intensity was detected using a fluorescence ELISA reader. All experiments were performed in triplicate, and the results are expressed as means with standard errors (SE).

[9] = agent incubated 60 minutes at 60°C
[10] = agent incubated 60 minutes at 80°C
[11] = agent incubated 60 minutes at 100°C
[12] = agent dissolved in pH = 4 solution
[13] = agent dissolved in pH = 6 solution
[14] = agent dissolved in pH = 8 solution
[15] = agent dissolved in pH = 10 solution
[16] = agent dissolved in pH = 12 solution
[17] = agent incubated 60 minutes at 40°C

SMILES: CC[C@H](C)[C@H](NC(=O)[C@H](C)NC(=O)[C@H](CCCCN)NC(=O)CNC(=O)[C@H](C)NC(=O)[C@H](CO)NC(=O)[C@H](Cc1ccccc1)NC(=O)[C@H](CC(C)C)NC(=O)CNC(=O)CNC(=O)[C@@H](NC(=O)[C@@H](NC(=O)[C@H](Cc1cnc[nH]1)NC(=O)[C@H](Cc1cnc[nH]1)NC(=O)[C@@H](NC(=O)[C@@H](N)Cc1ccccc1)[C@@H](C)CC)[C@@H](C)CC)[C@@H](C)CC)C(=O)N[C@@H](Cc1cnc[nH]1)C(=O)N[C@@H](CCCNC(=N)N)C(=O)N[C@@H](CC(C)C)C(=O)N[C@H](C(=O)N[C@@H](CCCNC(=N)N)C(=O)N[C@@H](CCCNC(=N)N)C(=O)N[C@@H](CCCNC(=N)N)C(=O)N[C@@H](CCCNC(=N)N)C(=O)N[C@@H](CCCNC(=N)N)C(=O)O)[C@@H](C)CC [TP4, tilapia piscidin 4] (H-FIHHIIGGLFSAGKAIHRLIRRRRR-OH)
- percent survival after injection of peptide only ([1]; 20 μg/fish): 70.0%
- percent survival after injection of peptide only ([1]; 30 μg/fish): 56.7%
- percent survival after injection of peptide only ([1]; 40 μg/fish): 63.3%
- percent survival after injection of peptide only ([1]; 50 μg/fish): 30.0%
- half-life [2]: 1 h

SMILES: CC1(C)S[C@@H]2[C@H](NC(=O)[C@H](N)c3ccccc3)C(=O)N2[C@H]1C(=O)O [ampicillin, reference compound]
- MIC [3]: 3.9 µg/mL (≈ 11.2 µM)
- MIC ([3]; Vibrio vulnificus, read-out: MIC): 3.91 µg/mL (≈ 11.2 µM)
- MBC [4]: 3.9 µg/mL (≈ 11.2 µM)
- MBC ([4]; Vibrio vulnificus, read-out: MBC): 3.91 µg/mL (≈ 11.2 µM)
- MBC ([5]; Vibrio vulnificus, agent dissolved in pH = 4 solution, read-out: MBC): 3.9 µg/mL (≈ 11.2 µM)
- MIC ([5]; Vibrio vulnificus, agent dissolved in pH = 4 solution, read-out: MIC): 3.9 µg/mL (≈ 11.2 µM)
- MBC ([5]; Vibrio vulnificus, agent dissolved in pH = 6 solution, read-out: MBC): 3.9 µg/mL (≈ 11.2 µM)
- MIC ([5]; Vibrio vulnificus, agent dissolved in pH = 6 solution, read-out: MIC): 3.9 µg/mL (≈ 11.2 µM)
- MBC ([5]; Vibrio vulnificus, agent dissolved in pH = 8 solution, read-out: MBC): 3.9 µg/mL (≈ 11.2 µM)
- MIC ([5]; Vibrio vulnificus, agent dissolved in pH = 8 solution, read-out: MIC): 3.9 µg/mL (≈ 11.2 µM)
- MBC ([5]; Vibrio vulnificus, agent dissolved in pH = 10 solution, read-out: MBC): 3.9 µg/mL (≈ 11.2 µM)
- MIC ([5]; Vibrio vulnificus, agent dissolved in pH = 10 solution, read-out: MIC): 3.9 µg/mL (≈ 11.2 µM)
- MBC ([5]; Vibrio vulnificus, agent dissolved in pH = 12 solution, read-out: MBC): 15.6 µg/mL (≈ 44.6 µM)
- MIC ([5]; Vibrio vulnificus, agent dissolved in pH = 12 solution, read-out: MIC): 15.6 µg/mL (≈ 44.6 µM)
- MBC ([5]; Vibrio vulnificus, pH 7, Control of the pH series (pH 7), read-out: MBC): 3.9 µg/mL (≈ 11.2 µM)
- MIC ([5]; Vibrio vulnificus, pH 7, Control of the pH series (pH 7), read-out: MIC): 3.9 µg/mL (≈ 11.2 µM)
- MBC ([6]; Vibrio vulnificus, 1 h, agent incubated 60 minutes at 40°C, read-out: MBC): 3.9 µg/mL (≈ 11.2 µM)
- MIC ([6]; Vibrio vulnificus, 1 h, agent incubated 60 minutes at 40°C, read-out: MIC): 3.9 µg/mL (≈ 11.2 µM)
- MBC ([6]; Vibrio vulnificus, RT, read-out: MBC): 3.9 µg/mL (≈ 11.2 µM)
- MIC ([6]; Vibrio vulnificus, RT, read-out: MIC): 3.9 µg/mL (≈ 11.2 µM)
- MBC [6, 9]: 3.9 µg/mL (≈ 11.2 µM)
- MIC [6, 9]: 3.9 µg/mL (≈ 11.2 µM)
- MBC [6, 10]: 3.9 µg/mL (≈ 11.2 µM)
- MIC [6, 10]: 3.9 µg/mL (≈ 11.2 µM)
- MBC [6, 11]: 3.9 µg/mL (≈ 11.2 µM)
- MIC [6, 11]: 3.9 µg/mL (≈ 11.2 µM)
- thermostability by MIC and MBC values ([6]; from 40°C to 100°C, in words): very stable
- change of the MIC of the antibiotic in combination with TP3 or TP4 [7]: halved

SMILES: NC[C@H]1O[C@H](O[C@H]2[C@H](O)[C@@H](O[C@H]3O[C@H](CO)[C@@H](O)[C@H](N)[C@H]3O)[C@H](N)C[C@@H]2N)[C@H](O)[C@@H](O)[C@@H]1O [kanamycin, reference compound]
- MIC [3]: 31.2 µg/mL (≈ 64.4 µM)
- MBC [4]: 31.2 µg/mL (≈ 64.4 µM)
- MBC ([5]; Control of the pH series (pH 7)): 31.2 µg/mL (≈ 64.4 µM)
- MBC [5, 12]: 31.2 µg/mL (≈ 64.4 µM)
- MIC [5, 12]: 31.2 µg/mL (≈ 64.4 µM)
- MBC [5, 13]: 31.2 µg/mL (≈ 64.4 µM)
- MIC [5, 13]: 31.2 µg/mL (≈ 64.4 µM)
- MBC [5, 14]: 31.2 µg/mL (≈ 64.4 µM)
- MIC [5, 14]: 31.2 µg/mL (≈ 64.4 µM)
- MBC [5, 15]: 31.2 µg/mL (≈ 64.4 µM)
- MIC [5, 15]: 31.2 µg/mL (≈ 64.4 µM)
- MBC [5, 16]: 250 µg/mL (≈ 516 µM)
- MIC [5, 16]: 250 µg/mL (≈ 516 µM)
- MBC ([6]; RT): 31.2 µg/mL (≈ 64.4 µM)
- MIC ([6]; RT): 31.2 µg/mL (≈ 64.4 µM)
- MBC [6, 17]: 31.2 µg/mL (≈ 64.4 µM)
- MIC [6, 17]: 31.2 µg/mL (≈ 64.4 µM)
- MBC [6, 9]: 31.2 µg/mL (≈ 64.4 µM)
- MIC [6, 9]: 31.2 µg/mL (≈ 64.4 µM)
- MBC [6, 10]: 31.2 µg/mL (≈ 64.4 µM)
- MIC [6, 10]: 31.2 µg/mL (≈ 64.4 µM)
- MBC [6, 11]: 62.5 µg/mL (≈ 129 µM)
- MIC [6, 11]: 62.5 µg/mL (≈ 129 µM)
- concentration that increased NPN fluorescence [8]: 100 µg/mL
- change of the MIC of the antibiotic in combination with TP3 or TP4 [7]: halved
